In assay [1] the test system is Langendorff's isolated heart (coronary flow). The experiment in a line: Langendorff isolated heart (increase in coronary flow). The note with it: tested at 30.0 to 0.01 micromolar. On the procedure:
In addition to their utility in the treatment of hypertension, the compounds of formula (I) are useful in the treatment of the symptoms of angina pectoris by virtue of their ability to dilate coronary arteries. Their activity was measured using the "Langendorff's isolated heart" preparation. This test has been described in "Pharmacological Experiments on Isolated Preparations", Staff of the Department of Pharmacology, University of Edinbourgh, 2nd Ed., Churchill Livingstone, N.Y., 1970, pp 112-119. The test compounds were administered at concentrations of 30.0, 10.0, 3.0, 1.0, 0.3, 0.1, 0.03 and 0.01 micromolar (10^-6 molar). The minimum concentration EC30) needed to elicit a 30% increase in coronary flow is shown in Table I for compounds of formula (I).

Assay [2] has as its system spontaneously hypertensive rats (mean arterial pressure). Briefly: Spontaneously Hypertensive Rat (SHR) test, fall in mean arterial pressure. It is filed as in vivo. The conditions noted are these: active if fall >15 mm of Hg. On the procedure: The activity of compounds of formula (I) for the treatment of hypertension was determined using the Spontaneously Hypertensive Rat (SHR) test as described below. Spontaneously Hypertensive Rat Test In this test, the arterial pressure of adult spontaneously hypertensive rats (Charles River) is monitored directly via an aortic cannula. The SH rats are anesthetized with an inhalation anesthetic (ether). The left carotoid artery is isolated and cannulated. The tip of the cannula is advanced to the aorta and the cannula is exteriorized behind the neck at the level of the scapula. Animals are placed in individual cages, allowed to recover from the anesthetic and are kept unrestrained. The arterial cannula is connected to a pressure transducer which is attached to a recorder. The test compounds are administered to at least 3 rats at doses selected in the range of 0.1 to 100 mg/kg of body weight by i.p. or p.o. routes of administration. The arterial pressure and heart rate are monitored for a minimum of 24 hr. A test compound is considered to be active as an antihypertensive agent if the mean arterial pressure (MAP) indicates a fall (δMAP) of >15 mm of Hg. Each animal serves as its own control.

Each structure is given as a SMILES string. Where a name gives a salt, the structure may show the parent alone.

Data on ten compounds can be found in patent publication US4888335A, “3-alkoxy-2-aminopropyl heterocyclic amines and their use as cardiovascular agents” (McNeilab, Inc., priority 1988, dated 1989).

As to `CC(C)COCC(CN1Cc2ccccc2Cc2ccccc21)N1CCCC1` (centres unmarked) [Example 1, 5,6-Dihydro-5-[3-(2-methylpropoxy)-2-(1-pyrrolidinyl)-propyl]-11H -dibenz[b,e]azepine], the “Langendorff EC30 (minimum concentration needed to elicit a 30% increase in coronary flow)” value in assay [1] is on record as “.013 10^-6 M”. For the same compound, the results for the “SHR δMAP (change in mean arterial pressure)” value in assay [2] (10 mg/kg i.p.) and in assay [2] (30 mg/kg i.p.) were -37 mm of Hg and -65 mm of Hg, respectively.
Turning to `CC(C)COCC(CN1Cc2ccccc2CCc2ccccc21)N1CCCC1` (stereo not drawn) [Example 2b, 5,6,11,12-Tetrahydro-5-beta-[3-(2-methylpropoxy)-2-(1-pyrrolidinyl)propyl]dibenz[b,f]azocine Hydrate (5:1)], the “Langendorff EC30 (minimum concentration needed to elicit a 30% increase in coronary flow)” value in assay [1] is “.150 10^-6 M”. In assay [2] (30 mg/kg p.o.), the “SHR δMAP (change in mean arterial pressure)” value is -25 mm of Hg.
As for `CC(C)(C)COCC(CN1Cc2ccccc2Cc2ccccc21)N1CCCC1.O=C(O)/C=C/C(=O)O` (centres unmarked) [Example 3c, 5,6-Dihydro-5-[3-(2,2-dimethylpropoxy)-2-(1-pyrrolidinyl)propyl]-11H-dibenz[b,e]azepine (E)-2-Butenedioate], the “Langendorff EC30 (minimum concentration needed to elicit a 30% increase in coronary flow)” value in assay [1] is recorded as “.004 10^-6 M”. Also, the “SHR δMAP (change in mean arterial pressure)” value in assay [2] (10 mg/kg i.p.) is on record as -54 mm of Hg; in assay [2] (30 mg/kg p.o.), -2 mm of Hg.
With `CC(C)COCC(CN1c2ccccc2CCc2ccccc21)N1CCCC1` (centres unmarked) [Example 4, 10,11-dihydro-5-[3-(2-methylpropoxy)-2-(1-pyrrolidinyl)propyl]-5H-dibenz[b,f]azepine], in assay [1], the “Langendorff EC30 (minimum concentration needed to elicit a 30% increase in coronary flow)” value is given as “.011 10^-6 M”. The “SHR δMAP (change in mean arterial pressure)” value in assay [2] (10 mg/kg i.p.) is on record as -65 mm of Hg.
In the case of `CC(C)(C)COCC(CN1Cc2ccccc2Oc2ccccc21)N1CCCC1.O=C(O)/C=C/C(=O)O` (centres unmarked) [Example 5b, 10,11-Dihydro-10-[3-(2,2-dimethylpropoxy)-2-(1-pyrrolidinyl)propyl]dibenz[b,f][1,4]oxazepine (E)-2-Butenedioate], the “Langendorff EC30 (minimum concentration needed to elicit a 30% increase in coronary flow)” value in assay [1] is “.04 10^-6 M”. The “SHR δMAP (change in mean arterial pressure)” value in assay [2] (10 mg/kg i.p.) is recorded as -70 mm of Hg; in assay [2] (30 mg/kg p.o.), -20 mm of Hg.
Take `CC(C)(C)COCC(CN1c2ccccc2C=Cc2ccccc21)N1CCCC1` (centres unmarked) [Example 6, 5-[3-(2,2 Dimethylpropxy)-2-(1-pyrrolidinyl)propyl]-5H-dibenz[b,f]azepine Hydrochloride]: in assay [1], the “Langendorff EC30 (minimum concentration needed to elicit a 30% increase in coronary flow)” value is on record as “.001 10^-6 M”. The “SHR δMAP (change in mean arterial pressure)” value in assay [2] (10 mg/kg i.p.) is listed as -27 mm of Hg.
In the case of `CC1(COCC(CN2c3ccccc3Oc3ccccc32)N2CCCC2)CCCCC1.Cl` (centres unmarked) [Example 7d, 10-[3-[(1-Methylcyclohexyl)methoxy]-2-(1-pyrrolidinyl)-propyl]-10H-phenoxazine Hydrochloride (1:1)], the “Langendorff EC30 (minimum concentration needed to elicit a 30% increase in coronary flow)” value in assay [1] is listed as “.012 10^-6 M”. In assay [2] (30 mg/kg p.o.), the “SHR δMAP (change in mean arterial pressure)” value is given as -24 mm of Hg.
As for `CC1(COCC(CN2c3ccccc3C=Cc3ccccc32)N2CCCC2)CCCCC1` (centres unmarked) [Example 8, 5-[3-[(1-methylcyclohexyl)methoxy]-2-(1-pyrrolidinyl)propyl]-5H-dibenz[b,f]azepine], the “Langendorff EC30 (minimum concentration needed to elicit a 30% increase in coronary flow)” value in assay [1] was “.0037 10^-6 M”. Moreover, the “SHR δMAP (change in mean arterial pressure)” value in assay [2] (30 mg/kg p.o.) is -12 mm of Hg.
As for `CC(C)COCC(CN1c2ccccc2Sc2ccccc21)N1CCCC1` (centres unmarked) [Example 9, 10-[3-(2-Methylpropoxy)-2-(1-pyrrolidinyl)propyl]-10H-phenothiazine], the “Langendorff EC30 (minimum concentration needed to elicit a 30% increase in coronary flow)” value in assay [1] is “.30 10^-6 M”. Moreover, the “SHR δMAP (change in mean arterial pressure)” value in assay [2] (10 mg/kg i.p.) was -22 mm of Hg; in assay [2] (30 mg/kg p.o.), -19 mm of Hg.
On to `C=C(C)COCC(CN1c2ccccc2C=Cc2ccccc21)N1CCCC1` (centres unmarked) [Example 10, 5-[3-(2-methyl-2-propenoxy)-2-(1-pyrrolidinyl)propyl]-5H-dibenz[b,f]azepine], for which the “SHR δMAP (change in mean arterial pressure)” value in assay [2] (30 mg/kg p.o.) is recorded as -25 mm of Hg.
